From patent publication US8222290B2, “Substituted N-phenyl-bipyrrolidine ureas and therapeutic use thereof” (Sanofi, priority 2007, dated 2012)
Structures can show the parent of a compound that is named as a salt.

Biological target: T1, rhesus H3 receptor (Macaca mulatta, UniProt Q865E1)
T1 construct: rhesus monkey (Macacca Mulatta) 445 amino acid H3 receptor; (Genbank #AY231164); expressed in transfected cells; host or cells: Flp-In T-REx 293 Cell Line (Invitrogen), pcDNA5/FRT/TO, induced with tetracycline; membranes
Assay: Rhesus H3 [3H]-Methylhistamine radioligand binding assay (SPA)
Parameters: species or system rhesus monkey (Macacca Mulatta)
Settings: [3H]-Methylhistamine 2 nM, rhesus H3 membranes, Cheng-Prusoff
Protocol: Rhesus H3 membranes were prepared from the Flp-In T-REx 293 Cell Line (Invitrogen) stably transfected with pcDNA5/FRT/TO (Invitrogen) containing the rhesus monkey (Macacca Mulatta) 445 amino acid H3 receptor. (Genbank #AY231164). Stably transfected cultures were amplified in tissue culture flasks by standard tissue culture methods and induced to express rhesus H3 by exposure to 500 ng/ml tetracycline (Cellgro) for 24 hours. After induction, cells were dissociated from flasks utilizing Cell Stripper (Cellgro). Cells were centrifuged (1K×g, 5 min) and pellet frozen in an ethanol-dry ice bath to disrupt cell membranes. Frozen cell pellet was re-suspended in 5 mM HEPES (pH 7.4, Invitrogen) at 10 ml/1000 cm2 of harvested cells. The cell suspension was drawn through an 18 gauge needle (2-3×) followed by a 23 gauge needle (2-3×) to further disrupt cell membranes. The cell suspension was centrifuged (40K×g, 30 min). Cell membrane pellet was re-suspended in 5 mM HEPES (pH 7.4, Invitrogen) at a final protein concentration of 10 mg/ml. Rhesus H3 membranes were stored under liquid nitrogen prior to use in [3H]-Methylhistamine and GTPγS radioligand binding assays.
Rhesus H3 radioligand binding assay was performed using rhesus H3 receptor membranes (prepared as described above), [3H]-Methylhistamine (Perkin Elmer) and WGA SPA beads (wheat germ agglutinin scintillation proximity assay) beads (Amersham). The assay was performed in 96-well Opti-Plates (Packard). Each reaction contained 50 μl rhesus H3 membranes (20-30 μg total protein), 50 μl WGA SPA beads (0.1 μg) and 50 μl of 83Ci/mmol [^3H]-Methylhistamine (final concentration 2 nM) and 50 μl of tested compound. The compounds of this invention and/or vehicle were diluted with binding buffer from 10 mM DMSO stocks. Assay plates were sealed with TopSeal (Perkin Elmer) and mixed on shaker (25° C., 1 hour). Assay plates were read on TopCount scintillation counter (Packard). Results were analyzed by Hill transformation and Ki values were determined by Cheng-Prusoff equation.

T1 sequence (Q865E1 1-445): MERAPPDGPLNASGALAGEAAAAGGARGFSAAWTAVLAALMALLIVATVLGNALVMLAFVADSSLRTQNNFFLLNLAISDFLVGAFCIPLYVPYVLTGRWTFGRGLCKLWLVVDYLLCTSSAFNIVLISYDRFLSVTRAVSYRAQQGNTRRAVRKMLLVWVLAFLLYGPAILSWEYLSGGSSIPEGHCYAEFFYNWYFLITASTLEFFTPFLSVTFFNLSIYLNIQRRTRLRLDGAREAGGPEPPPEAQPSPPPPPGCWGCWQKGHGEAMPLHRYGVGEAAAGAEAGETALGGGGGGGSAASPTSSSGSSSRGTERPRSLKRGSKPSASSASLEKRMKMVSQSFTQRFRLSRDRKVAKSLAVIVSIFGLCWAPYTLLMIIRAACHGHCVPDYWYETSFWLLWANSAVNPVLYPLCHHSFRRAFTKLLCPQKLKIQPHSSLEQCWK

Row | SMILES | Ki [µM]
1 | CC(=O)N(C)C1CCN(C(=O)Nc2ccc(N3CCC(N4CCCC4C)C3)c(C)c2)C1 (stereo not shown) [Example 2, 3-(Acetyl-methyl-amino)-pyrrolidine-1-carboxylic acid [3-methyl-4-(2-methyl-[1,3′]bipyrrolidinyl-1′-yl)-phenyl]-amide trifluoroacetate] | 0.0897
2 | Cc1cc(N2CCC(N3CCCC3C)C2)ccc1NC(=O)Nc1cc(Cl)cc(Cl)c1 (stereo not shown) [Example 15, 1-(3,5-Dichloro-phenyl)-3-[2-methyl-4-(2-methyl-[1,3′]bipyrrolidinyl-1′-yl)-phenyl]-urea trifluoroacetate] | 0.0222
3 | Cc1cc(NC(=O)N2CCCCC2)ccc1N1CCC(N2CCCC2C)C1 (stereo not shown) [Example 24, Piperidine-1-carboxylic acid [3-methyl-4-(2-methyl-[1,3′]bipyrrolidinyl-1′-yl)-phenyl]-amide trifluoroacetate] | 0.029
4 | CC1CCCN1C1CCN(c2ccc(NC(=O)N3CCN(C)CC3)cc2)C1 (stereo not shown) [Example 5, 4-Methyl-piperazine-1-carboxylic acid [4-(2-methyl-[1,3′]bipyrrolidinyl-1′-yl)-phenyl]-amide trifluoroacetate] | 0.0257
5 | CC(=O)N1CCN(C(=O)Nc2ccc(N3CCC(N4CCCC4C)C3)c(C)c2)CC1 (stereo not shown) [Example 22, 4-Acetyl-piperazine-1-carboxylic acid [3-methyl-4-(2-methyl-[1,3′]bipyrrolidinyl-1′-yl)-phenyl]-amide trifluoroacetate] | 0.023
6 | Cc1cc(NC(=O)Nc2cc(Cl)cc(Cl)c2)ccc1N1CCC(N2CCCC2C)C1 (stereo not shown) [Example 19, 1-(3,5-Dichloro-phenyl)-3-[3-methyl-4-(2-methyl-[1,3′]bipyrrolidinyl-1′-yl)-phenyl]-urea trifluoroacetate] | 0.043
7 | CC1CCCN1C1CCN(c2ccc(NC(=O)Nc3cc(Cl)cc(Cl)c3)cc2)C1 (stereo not shown) [Example 12, 1-(3,5-Dichloro-phenyl)-3-[4-(2-methyl-[1,3′]bipyrrolidinyl-1′-yl)-phenyl]-urea trifluoroacetate] | 0.0191
8 | CC(=O)N(C)C1CCN(C(=O)Nc2ccc(N3CCC(N4CCCC4C)C3)cc2)C1 (stereo not shown) [Example 14, 3-(Acetyl-methyl-amino)-pyrrolidine-1-carboxylic acid [4-(2-methyl-[1,3′]bipyrrolidinyl-1′-yl)-phenyl]-amide trifluoroacetate] | 0.0355
9 | CC(=O)N1CCN(C(=O)Nc2ccc(N3CCC(N4CCCC4C)C3)cc2)CC1 (stereo not shown) [Example 13, 4-Acetyl-piperazine-1-carboxylic acid [4-(2-methyl-[1,3′]bipyrrolidinyl-1′-yl)-phenyl]-amide trifluoroacetate] | 0.0341
10 | Cc1cc(NC(=O)NCc2cc(Cl)cc(Cl)c2)ccc1N1CCC(N2CCCC2C)C1 (stereo not shown) [Example 9, 1-(3,5-Dichloro-benzyl)-3-[3-methyl-4-(2-methyl-[1,3′]bipyrrolidinyl-1′-yl)-phenyl]-urea trifluoroacetate] | 0.0289

These reach a lower Ki. Values come first.

Row | Ki [µM] | SMILES
11 | 0.0111 | CC1CCCN1C1CCN(c2ccc(NC(=O)N3Cc4ccccc4C3)cc2)C1 (stereo not shown) [Example 6, 1,3-Dihydro-isoindole-2-carboxylic acid [4-(2-methyl-[1,3′]bipyrrolidinyl-1′-yl)-phenyl]-amide trifluoroacetate]
12 | 0.002 | CC1CCCN1C1CCN(c2ccc(NC(=O)NCc3cccs3)cc2)C1 (stereo not shown) [Example 8, 1-[4-(2-Methyl-[1,3′]bipyrrolidinyl-1′-yl)-phenyl]-3-thiophen-2-ylmethyl-urea trifluoroacetate]
13 | 0.0181 | CC1CCCN1C1CCN(c2ccc(NC(=O)NCc3cc(Cl)cc(Cl)c3)c(C(F)(F)F)c2)C1 (stereo not shown) [Example 25, 1-(3,5-Dichloro-benzyl)-3-[4-(2-methyl-[1,3′]bipyrrolidinyl-1′-yl)-2-trifluoromethyl-phenyl]-urea trifluoroacetate]
14 | 0.0112 | Cc1cc(NC(=O)NC2CCCCC2)ccc1N1CCC(N2CCCC2C)C1 (stereo not shown) [Example 10, 1-Cyclohexyl-3-[3-methyl-4-(2-methyl-[1,3′]bipyrrolidinyl-1′-yl)-phenyl]-urea trifluoroacetate]
15 | 0.0063 | Cc1cc(NC(=O)Nc2cccc(C#N)c2)ccc1N1CCC(N2CCCC2C)C1 (stereo not shown) [Example 23, 1-(3-Cyano-phenyl)-3-[3-methyl-4-(2-methyl-[1,3′]bipyrrolidinyl-1′-yl)-phenyl]-urea trifluoroacetate]
16 | 0.006 | CC1CCCN1C1CCN(c2ccc(NC(=O)N3CCCCC3)cc2)C1 (stereo not shown) [Example 1, Piperidine-1-carboxylic acid [4-(2-methyl-[1,3′]bipyrrolidinyl-1′-yl)-phenyl]-amide trifluoroacetate]
17 | 0.0084 | Cc1cc(NC(=O)NCc2cccs2)ccc1N1CCC(N2CCCC2C)C1 (stereo not shown) [Example 11, 1-[3-Methyl-4-(2-methyl-[1,3′]bipyrrolidinyl-1′-yl)-phenyl]-3-thiophen-2-ylmethyl-urea trifluoroacetate]
18 | 0.0046 | Cc1cc(N2CCC(N3CCCC3C)C2)ccc1NC(=O)NC1CCCCC1 (stereo not shown) [Example 16, 1-Cyclohexyl-3-[2-methyl-4-(2-methyl-[1,3′]bipyrrolidinyl-1′-yl)-phenyl]-urea trifluoroacetate]
19 | 0.008 | Cc1cc(NC(=O)N2Cc3ccccc3C2)ccc1N1CCC(N2CCCC2C)C1 (stereo not shown) [Example 21, 1,3-Dihydro-isoindole-2-carboxylic acid [3-methyl-4-(2-methyl-[1,3′]bipyrrolidinyl-1′-yl)-phenyl]-amide trifluoroacetate]
20 | 0.0077 | CC1CCCN1C1CCN(c2ccc(NC(=O)Nc3cccc(C#N)c3)cc2)C1 (stereo not shown) [Example 7, 1-(3-Cyano-phenyl)-3-[4-(2-methyl-[1,3′]bipyrrolidinyl-1′-yl)-phenyl]-urea trifluoroacetate]
21 | 0.0041 | CC1CCCN1C1CCN(c2ccc(NC(=O)NC3CCCCC3)cc2)C1 (stereo not shown) [Example 3, 1-Cyclohexyl-3-[4-(2-methyl-[1,3′]bipyrrolidinyl-1′-yl)-phenyl]-urea trifluoroacetate]
22 | 0.0127 | Cc1cc(NC(=O)N2CCN(C)CC2)ccc1N1CCC(N2CCCC2C)C1 (stereo not shown) [Example 20, 4-Methyl-piperazine-1-carboxylic acid [3-methyl-4-(2-methyl-[1,3′]bipyrrolidinyl-1′-yl)-phenyl]-amide trifluoroacetate]
23 | 0.0105 | Cc1cc(N2CCC(N3CCCC3C)C2)ccc1NC(=O)N1CCN(C)CC1 (stereo not shown) [Example 17, 4-Methyl-piperazine-1-carboxylic acid [2-methyl-4-(2-methyl-[1,3′]bipyrrolidinyl-1′-yl)-phenyl]-amide trifluoroacetate]
24 | 0.0108 | Cc1cc(N2CCC(N3CCCC3C)C2)ccc1NC(=O)N1Cc2ccccc2C1 (stereo not shown) [Example 18, 1,3-Dihydro-isoindole-2-carboxylic acid [2-methyl-4-(2-methyl-[1,3′]bipyrrolidinyl-1′-yl)-phenyl]-amide trifluoroacetate]
25 | 0.0106 | CC1CCCN1C1CCN(c2ccc(NC(=O)N3CCN(c4ccccc4)CC3)cc2)C1 (stereo not shown) [Example 4, 4-Phenyl-piperazine-1-carboxylic acid [4-(2-methyl-[1,3′]bipyrrolidinyl-1′-yl)-phenyl]-amide trifluoroacetate]
